From PubChem BioAssay AID792 (PCMD, 2007)
Records with an inconclusive call do not appear. The source made the active and inactive calls. How the calls were made is not given here.

Target: S. cerevisiae eIF2B mutant, luciferase reporter luminescence
Experiment: potency on yeast eIF2B luminescence signal – S. cerevisiae, mutant, wild-type, growth, dose response (AID 792)
[1] = measured here: mutant yeast growth
[2] = S. cerevisiae wild-type, luminescence

| SMILES | IC50 | IC50 [1] [µM] | IC50 [2] [µM] |
| --- | --- | --- | --- |
| Cc1cc(=O)[nH]c(SCc2cc(Cl)ccc2OC(F)F)n1 | > 100 µM (inactive) | > 100 |  |
| Cc1nn(-c2ccccc2)c(Cl)c1/C=N/Nc1ccc(S(=O)(=O)Nc2ccccc2C(=O)O)cc1[N+](=O)[O-] | > 100 µM (inactive) | > 100 |  |
| COc1ccccc1NC(=O)Cc1csc(N)n1 | > 100 µM (inactive) | > 100 |  |
| CSc1ccccc1NC(=O)c1cc(-c2cccs2)on1 | > 100 µM (inactive) | > 100 |  |
| CCN(CC)c1ccc(NC(=O)c2cccc(OC)c2)c(C)c1 | inactive | > 100 | > 100 |
| COc1ccc(C(=O)/C=C/Nc2ccccn2)cc1 | inactive | > 100 | 18.3 |
| CCCCC(=O)Nc1ccc(N2CCN(S(C)(=O)=O)CC2)cc1 | > 100 µM (inactive) | > 100 |  |
| Fc1ccc2c(c1)nnn2C1CCN(Cc2nnnn2C2CCCCC2)CC1 | > 100 µM (inactive) | > 100 |  |
| O=C(CCN1CCN(C(=O)c2ccco2)CC1)Nc1ccc(F)cc1 | > 100 µM (inactive) | > 100 |  |
| COc1cc(-c2nn3c(-c4ccccn4)nnc3s2)cc(OC)c1OC | > 100 µM (inactive) | > 100 |  |
| c1ccc(-c2cc(-c3nn4c(-c5ccco5)nnc4s3)c3ccccc3n2)cc1 | > 100 µM (inactive) | > 100 |  |
| CCCCNS(=O)(=O)c1cccc(S(=O)(=O)N2CCCC2)c1 | > 100 µM (inactive) | > 100 |  |
| CC(C)c1[nH]c(=O)c(C#N)c2c1COC(C)(C)C2 | > 100 µM (inactive) | > 100 |  |
| Cc1ccc(C(=O)NCc2ccco2)cc1S(=O)(=O)Nc1cccc(C)c1C | > 100 µM (inactive) | > 100 |  |
| O=C1c2ccccc2C(=O)C1c1ccncc1 | inactive | > 100 | 17.9 |
| CCOC(=O)c1[nH]c2ccc(OC)cc2c1NC(=O)C(C)N1CCSCC1 (configuration not stated) | > 100 µM (inactive) | > 100 |  |
| CCOCC(=O)Nc1cccc(NC(C)=O)c1 | > 100 µM (inactive) | > 100 |  |
| COC(=O)c1sc(NC(=O)COc2cccc3ccccc23)nc1C | > 100 µM (inactive) | > 100 |  |
| COc1cccc(-n2c(C)nnc2SCC(=O)Nc2ccccc2N2CCOCC2)c1 | > 100 µM (inactive) | > 100 |  |
| CC(=O)/C(C(=N)N1CCN(c2cccc(Cl)c2)CC1)=C(\C)O | > 100 µM (inactive) | > 100 |  |
| COc1ccc(C2SCC(=O)Nc3c2c(C)nn3C2CCOC(C)(C)C2)cc1 (configuration not stated) | > 100 µM (inactive) | > 100 |  |
| O=c1/c(=C/c2ccc(O)cc2)sc2n1CCCN=2 | inactive | > 100 | 2.11 |
| Cc1noc(C)c1C(=O)Nc1ccc2c(c1)CCC2 | > 100 µM (inactive) | > 100 |  |
| COC(=O)CSc1nnc2n(-c3ccc(OC)cc3)c(=O)c3c4c(sc3n12)CCCCC4 | > 100 µM (inactive) | 87.1 |  |
| CCOC(=O)c1sc(N)c(C#N)c1CSc1nc2ccc(C)cc2[nH]1 | > 100 µM (inactive) | > 100 |  |
| CN1CCN(c2nc(N3CCN(CCO)CC3)nc3ccccc23)CC1 | > 100 µM (inactive) | > 100 |  |
| Nn1cnnc1SC1CCCCC1NS(=O)(=O)c1ccccc1 (configuration not stated) | > 100 µM (inactive) | > 100 |  |

| SMILES | IC50 | IC50 [1] [µM] | IC50 [2] [µM] |
| --- | --- | --- | --- |
| N#CC(C(=O)OC1CCCCC1)c1nc2ccccc2nc1N1CCOCC1 (configuration not stated) | > 100 µM (inactive) | > 100 |  |
| Cn1c(=O)[nH]c(=O)c2c1nc(SCC(O)CO)n2Cc1ccccc1Cl (configuration not stated) | > 100 µM (inactive) | > 100 |  |
| O=c1c2ccccc2nc(-c2ccco2)n1-c1nc2ccccc2s1 | > 100 µM (inactive) | > 100 |  |
| CCOc1ccc(C2NC(=O)NC(C)=C2C(=O)OC)cc1C (configuration not stated) | inactive | 33.3 |  |
| COC(=O)c1cc2occc2n1CC(=O)Nc1ccc(OC)c(OC)c1 | > 100 µM (inactive) | > 100 |  |
| CN(CCO)c1nc(N)c2c(N)nc3c(c2c1C#N)CC(=O)N3C1CCCC1 | > 100 µM (inactive) | > 100 |  |
| CC(C)Cc1nnc(NC(=O)CC(=O)Nc2ccccc2C(=O)O)s1 | inactive | > 100 | 65.4 |
| O=C(Cc1ccccc1)N(c1ccc(F)cc1)C1C=CS(=O)(=O)C1 (configuration not stated) | > 100 µM (inactive) | > 100 |  |
| CCC(Sc1nc2n[nH]c(C)c2c(=N)n1-c1ccc(C)c(Cl)c1)C(=O)N1CCOCC1 (configuration not stated) | > 100 µM (inactive) | > 100 |  |
| CC(=O)c1ccc(NC(=O)c2noc3c2CCCCC3)cc1 | > 100 µM (inactive) | > 100 |  |
| CCOC(=O)c1ccc(N2C(=O)C=CC2=O)cc1 | inactive | 6.02 |  |
| COc1ccc(C2(C)NC(=O)N(CC(=O)Nc3ccc4c(c3)OCO4)C2=O)cc1OC (configuration not stated) | > 100 µM (inactive) | > 100 |  |
| O=C(CC(Nc1ccccc1)C(=O)O)c1ccccc1 (configuration not stated) | > 100 µM (inactive) | > 100 |  |
| Cc1nn(-c2ccccc2)c2c1C(c1c(C)[nH]c(C#N)c1C)C(C#N)=C(N)O2 (configuration not stated) | > 100 µM (inactive) | > 100 |  |
| Cc1ccc2c(c1)C1CN(C)CCC1N2C(=O)Nc1cccc(Cl)c1 (configuration not stated) | > 100 µM (inactive) | > 100 |  |
| CCn1cc(C(=O)NCC2CCCO2)c(=O)c2cc(S(=O)(=O)N3CCCCC3)ccc21 (configuration not stated) | > 100 µM (inactive) | > 100 |  |
| COc1ccc(NC(=O)CSc2ncnc3c2cnn3Cc2ccccc2)cc1OC | > 100 µM (inactive) | > 100 |  |
| Cc1ccc(C)c(N2CCN(C(=O)c3ccc(CS(=O)(=O)c4ccccc4C)o3)CC2)c1 | > 100 µM (inactive) | > 100 |  |
| Cc1cc(/C([O-])=C(/C(=S)Nc2ccc(F)cc2)[n+]2ccccc2)c(C)n1-c1ccc(F)cc1 | > 100 µM (inactive) | > 100 |  |
| O=C(NC(Cc1ccccc1)C(=O)OCC(=O)N1CCc2ccccc21)c1ccco1 (configuration not stated) | > 100 µM (inactive) | > 100 |  |
| CCC(C)(C)n1nnnc1CN(Cc1cccs1)Cc1cc2cc(OC)ccc2[nH]c1=O | > 100 µM (inactive) | > 100 |  |
| CCOC(=O)c1c(-c2ccco2)csc1NC(=O)CSc1nnc(N)s1 | > 100 µM (inactive) | > 100 |  |
| O=C(c1ccco1)N1CCN(C(=O)c2ccccc2Oc2ccccc2)CC1 | > 100 µM (inactive) | > 100 |  |
| O=C(CSc1nnc(-c2ccccn2)n1-c1ccccc1)Nc1ccc2c(c1)OCO2 | > 100 µM (inactive) | > 100 |  |
| O=C(N1CCOCC1)N1c2ccccc2CC(N2CCOCC2)c2ccccc21 (configuration not stated) | > 100 µM (inactive) | > 100 |  |
| c1ccc(SCc2nc(-c3ccccn3)no2)cc1 | > 100 µM (inactive) | > 100 |  |
| COC(=O)Cc1c(C)c2cc(Cl)c(OC(=O)c3ccco3)cc2oc1=O | > 100 µM (inactive) | > 100 |  |

| SMILES | IC50 | IC50 [1] [µM] | IC50 [2] [µM] |
| --- | --- | --- | --- |
| N#Cc1c(/N=C/c2cc(Br)cs2)sc2c1CCC2 | > 100 µM (inactive) | > 100 |  |
| O=C(c1ccc(Br)o1)N1CCCc2ccccc21 | > 100 µM (inactive) | > 100 |  |
| CCCn1nnc(NC(=O)C(c2ccccc2)c2ccccc2)n1 | > 100 µM (inactive) | > 100 |  |
| O=C(NCCc1ccccn1)c1cccc(S(=O)(=O)N2CCCCCC2)c1 | > 100 µM (inactive) | > 100 |  |
| COc1cc(C(=S)N2CCCC2)cc(OC)c1O | > 100 µM (inactive) | > 100 |  |
| CCn1c(CNc2nc3ccccc3n2C(C)C)nc2ccccc21 | > 100 µM (inactive) | > 100 |  |
| CCOC(=O)C1CCN(c2ncnc3c2oc2ccccc23)CC1 | > 100 µM (inactive) | > 100 |  |
| CCOC(=O)N1CCN(c2cc(NCCC(=O)O)c3c4c(onc24)-c2ccccc2C3=O)CC1 | > 100 µM (inactive) |  |  |
| COc1cc(OC)nc(NC(=O)CCl)n1 | > 100 µM (inactive) | > 100 |  |
| C=CCn1c(SCc2c(Cl)cccc2Cl)nnc1-c1cccnc1 | > 100 µM (inactive) | > 100 |  |
| C=CCc1c(C)nc(SC(C)C)[nH]c1=O | > 100 µM (inactive) | > 100 |  |
| COC(=O)C(NC(=O)c1ccco1)(Nc1nc(C)cs1)C(F)(F)F (configuration not stated) | > 100 µM (inactive) | > 100 |  |
| Cn1c(=O)[nH]c(=O)c2c1nc(Br)n2CCCCSc1nc2ccccc2o1 | > 100 µM (inactive) | > 100 |  |
| CCOC(=O)Cc1csc(NC(=O)CCc2ccc(S(=O)(=O)N3CCOCC3)cc2)n1 | > 100 µM (inactive) | > 100 |  |
| Cc1ccc(-c2nnc3ccc(SCC(=O)NCc4ccco4)nn23)cc1 | > 100 µM (inactive) | > 100 |  |
| c1ccc(CCc2nc(-c3ccncc3)no2)cc1 | > 100 µM (inactive) | > 100 |  |
| CCCn1c(SCC(=O)Nc2nc3c(s2)CCCC3)nc2c1c(=O)n(C)c(=O)n2C | > 100 µM (inactive) | > 100 |  |
| CC(C)CNC(=O)c1cc2nc(C3CC3)cc(C(F)(F)F)n2n1 | > 100 µM (inactive) | > 100 |  |
| CCC(C)(C(=O)NC1CCCCC1)N(Cc1ccco1)C(=O)c1ccc2c(c1)OCO2 (configuration not stated) | > 100 µM (inactive) | > 100 |  |
| CC(=O)Nc1cc(C(F)(F)F)ccc1OCCOc1ccccc1 | > 100 µM (inactive) | > 100 |  |
| CC1(C)CC(=O)c2cc(OCC(=O)NCCCN3CCN(c4ccccc4F)CC3)ccc2O1 | > 100 µM (inactive) | > 100 |  |
| CCC(=O)NCCSc1c[nH]c2ccccc12 | > 100 µM (inactive) | > 100 |  |
| CCOC(=O)CC1=NC(=O)CS1 | > 100 µM (inactive) | > 100 |  |
| CCOC(=O)N1CCN(C(=O)c2nn(-c3cc(OC)cc(OC)c3)c(=O)c3ccccc23)CC1 | > 100 µM (inactive) | > 100 |  |
| CCn1c(SCC(=O)Nc2oc(-c3ccccc3)c(-c3ccccc3)c2C#N)nnc1-c1ccco1 | > 100 µM (inactive) | > 100 |  |
